What was measured:
Experiment in all cases: Kinase profiling, 33P ATP filter binding assay
Format in all cases: biochemical
Conditions in all cases: 1 micromolar inhibitor concentration, read-out: percentage inhibition
MST4 = MST4 (Homo sapiens (Human), UniProt Q9P289)
CAMKKb = CAMKKb (Homo sapiens (Human), UniProt Q96RR4)
EPH-A4 = EPH-A4 (Homo sapiens (Human), UniProt P54764)
Lck = Lck (Homo sapiens (Human), UniProt P06239)
TTBK1 = TTBK1 (Homo sapiens (Human), UniProt Q5TCY1)
Src = Src (Homo sapiens (Human), UniProt P12931)
MEKK1 = MEKK1 (Homo sapiens (Human), UniProt Q13233)
PIM1 = PIM1 (Homo sapiens (Human), UniProt P11309)
MELK = MELK (Homo sapiens (Human), UniProt Q14680)
ULK1 = ULK1 (Homo sapiens (Human), UniProt O75385)
HIPK2 = HIPK2 (Homo sapiens (Human), UniProt Q9H2X6)
MARK1 = MARK1 (Homo sapiens (Human), UniProt Q9P0L2)
Aurora B = Aurora B (Homo sapiens (Human), UniProt Q96GD4)
MARK4 = MARK4 (Homo sapiens (Human), UniProt Q96L34)
RIPK2 = RIPK2 (Homo sapiens (Human), UniProt O43353)
JNK3 = JNK3 (Homo sapiens (Human), UniProt P53779)
YES1 = YES1 (Homo sapiens (Human), UniProt P07947)
Aurora A = Aurora A (Homo sapiens (Human), UniProt O14965)
RSK2 = RSK2 (Homo sapiens (Human), UniProt P51812)
PAK6 = PAK6 (Homo sapiens (Human), UniProt Q9NQU5)
MST2 = MST2 (Homo sapiens (Human), UniProt Q13188)
MNK1 = MNK1 (Homo sapiens (Human), UniProt Q9BUB5)
LKB1 = LKB1 (Homo sapiens (Human), UniProt Q15831)
MPSK1 = MPSK1 (Homo sapiens (Human), UniProt O75716)
SmMLCK = SmMLCK (Homo sapiens (Human), UniProt Q15746)
Procedure: The determination of protein kinase inhibition was performed at the International Centre for Kinase Profiling at the University of Dundee, UK. […] The ATP concentrations were at or below the calculated Km for ATP for each particular kinase.

BRSK2 = BRSK2 (Homo sapiens (Human), UniProt Q8IWQ3)
S6K1 = S6K1 (Homo sapiens (Human), UniProt P23443)
MSK1 = MSK1 (Homo sapiens (Human), UniProt O75582)
BRK = BRK (Homo sapiens (Human), UniProt Q13882)
ASK1 = ASK1 (Homo sapiens (Human), UniProt Q99683)
EIF2AK3 = EIF2AK3 (Homo sapiens (Human), UniProt Q9NZJ5)
TLK1 = TLK1 (Homo sapiens (Human), UniProt Q9UKI8)
JNK2 = JNK2 (Homo sapiens (Human), UniProt P45984)
SGK1 = SGK1 (Homo sapiens (Human), UniProt O00141)
IRR = IRR (Homo sapiens (Human), UniProt P14616)
SIK3 = SIK3 (Homo sapiens (Human), UniProt Q9Y2K2)
IKKe = IKKe (Homo sapiens (Human), UniProt Q14164)
PIM3 = PIM3 (Homo sapiens (Human), UniProt Q86V86)
PKBa = PKBa (Homo sapiens (Human), UniProt P31749)
MAPKAP-K2 = MAPKAP-K2 (Homo sapiens (Human), UniProt P49137)
TESK1 = TESK1 (Homo sapiens (Human), UniProt Q15569)
MKK6 = MKK6 (Homo sapiens (Human), UniProt P52564)

JNK3, sequence (P53779 whole entry, species assumed): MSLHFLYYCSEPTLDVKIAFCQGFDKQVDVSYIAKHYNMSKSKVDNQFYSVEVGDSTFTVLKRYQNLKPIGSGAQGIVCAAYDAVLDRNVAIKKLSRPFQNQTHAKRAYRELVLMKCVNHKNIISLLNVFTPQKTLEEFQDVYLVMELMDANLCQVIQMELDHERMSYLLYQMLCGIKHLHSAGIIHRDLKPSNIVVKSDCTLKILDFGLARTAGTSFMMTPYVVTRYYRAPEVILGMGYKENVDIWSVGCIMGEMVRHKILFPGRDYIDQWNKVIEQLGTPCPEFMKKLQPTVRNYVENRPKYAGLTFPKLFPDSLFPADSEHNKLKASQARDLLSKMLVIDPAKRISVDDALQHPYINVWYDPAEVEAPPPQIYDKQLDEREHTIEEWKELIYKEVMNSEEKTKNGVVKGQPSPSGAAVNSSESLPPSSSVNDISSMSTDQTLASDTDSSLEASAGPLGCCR
MARK1, sequence (Q9P0L2 whole entry, species assumed): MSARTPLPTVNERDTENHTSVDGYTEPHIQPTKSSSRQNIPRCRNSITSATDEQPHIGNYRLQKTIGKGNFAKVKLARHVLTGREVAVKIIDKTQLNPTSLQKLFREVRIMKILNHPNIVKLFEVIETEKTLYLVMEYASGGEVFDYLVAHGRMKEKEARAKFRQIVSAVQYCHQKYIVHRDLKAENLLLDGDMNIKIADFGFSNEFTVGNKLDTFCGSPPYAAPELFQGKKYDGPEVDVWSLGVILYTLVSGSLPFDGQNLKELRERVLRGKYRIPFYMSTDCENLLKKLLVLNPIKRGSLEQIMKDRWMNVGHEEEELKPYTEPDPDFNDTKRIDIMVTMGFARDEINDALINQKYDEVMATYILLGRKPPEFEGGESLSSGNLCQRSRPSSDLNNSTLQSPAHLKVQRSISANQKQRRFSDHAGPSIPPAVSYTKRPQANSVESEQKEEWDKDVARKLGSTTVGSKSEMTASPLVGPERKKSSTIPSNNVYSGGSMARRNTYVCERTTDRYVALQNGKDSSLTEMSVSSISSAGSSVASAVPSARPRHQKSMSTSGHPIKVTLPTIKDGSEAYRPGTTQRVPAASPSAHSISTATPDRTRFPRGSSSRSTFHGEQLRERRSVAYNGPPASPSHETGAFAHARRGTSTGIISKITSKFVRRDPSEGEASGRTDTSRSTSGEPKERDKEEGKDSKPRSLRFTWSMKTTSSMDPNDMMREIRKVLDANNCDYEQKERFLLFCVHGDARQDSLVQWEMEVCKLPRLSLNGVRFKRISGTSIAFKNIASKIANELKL
MPSK1, sequence (O75716 whole entry, species assumed): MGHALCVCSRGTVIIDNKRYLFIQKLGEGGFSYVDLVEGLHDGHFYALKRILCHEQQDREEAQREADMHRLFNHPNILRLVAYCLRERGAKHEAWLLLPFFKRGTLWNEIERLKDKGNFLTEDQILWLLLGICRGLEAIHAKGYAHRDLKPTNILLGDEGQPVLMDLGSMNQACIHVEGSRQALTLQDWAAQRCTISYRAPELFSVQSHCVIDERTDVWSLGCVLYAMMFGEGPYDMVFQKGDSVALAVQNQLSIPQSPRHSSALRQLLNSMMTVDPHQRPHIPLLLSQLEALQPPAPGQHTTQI
MST2, sequence (Q13188 whole entry, species assumed): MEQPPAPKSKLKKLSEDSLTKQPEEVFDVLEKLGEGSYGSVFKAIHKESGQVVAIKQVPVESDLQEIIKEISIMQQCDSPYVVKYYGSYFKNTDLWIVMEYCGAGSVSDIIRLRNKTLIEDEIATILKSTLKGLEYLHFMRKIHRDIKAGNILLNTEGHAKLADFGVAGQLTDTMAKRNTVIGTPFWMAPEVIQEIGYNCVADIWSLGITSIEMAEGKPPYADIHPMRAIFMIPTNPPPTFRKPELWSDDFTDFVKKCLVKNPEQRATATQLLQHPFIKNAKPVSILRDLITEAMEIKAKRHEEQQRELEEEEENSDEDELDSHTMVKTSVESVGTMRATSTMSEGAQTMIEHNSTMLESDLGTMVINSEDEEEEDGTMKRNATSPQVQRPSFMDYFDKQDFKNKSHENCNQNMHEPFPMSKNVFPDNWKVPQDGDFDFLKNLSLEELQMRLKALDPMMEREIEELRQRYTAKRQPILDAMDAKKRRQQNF
CAMKKb, sequence (Q96RR4 whole entry, species assumed): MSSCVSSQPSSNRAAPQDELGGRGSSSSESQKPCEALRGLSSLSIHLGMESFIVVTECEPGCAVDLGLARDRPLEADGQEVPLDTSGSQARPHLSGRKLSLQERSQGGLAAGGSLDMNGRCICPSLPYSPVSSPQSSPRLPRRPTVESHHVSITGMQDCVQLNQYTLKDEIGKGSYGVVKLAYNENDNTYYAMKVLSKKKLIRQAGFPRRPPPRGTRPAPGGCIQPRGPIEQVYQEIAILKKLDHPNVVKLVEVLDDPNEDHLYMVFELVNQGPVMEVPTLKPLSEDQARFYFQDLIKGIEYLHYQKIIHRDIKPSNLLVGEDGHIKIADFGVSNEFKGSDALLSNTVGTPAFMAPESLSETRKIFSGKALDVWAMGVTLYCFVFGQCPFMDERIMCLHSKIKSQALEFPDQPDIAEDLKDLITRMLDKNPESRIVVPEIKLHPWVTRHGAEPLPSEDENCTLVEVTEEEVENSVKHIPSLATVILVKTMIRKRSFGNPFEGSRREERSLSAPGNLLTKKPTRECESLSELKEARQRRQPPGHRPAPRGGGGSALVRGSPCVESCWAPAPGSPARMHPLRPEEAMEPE
BRK, sequence (Q13882 whole entry, species assumed): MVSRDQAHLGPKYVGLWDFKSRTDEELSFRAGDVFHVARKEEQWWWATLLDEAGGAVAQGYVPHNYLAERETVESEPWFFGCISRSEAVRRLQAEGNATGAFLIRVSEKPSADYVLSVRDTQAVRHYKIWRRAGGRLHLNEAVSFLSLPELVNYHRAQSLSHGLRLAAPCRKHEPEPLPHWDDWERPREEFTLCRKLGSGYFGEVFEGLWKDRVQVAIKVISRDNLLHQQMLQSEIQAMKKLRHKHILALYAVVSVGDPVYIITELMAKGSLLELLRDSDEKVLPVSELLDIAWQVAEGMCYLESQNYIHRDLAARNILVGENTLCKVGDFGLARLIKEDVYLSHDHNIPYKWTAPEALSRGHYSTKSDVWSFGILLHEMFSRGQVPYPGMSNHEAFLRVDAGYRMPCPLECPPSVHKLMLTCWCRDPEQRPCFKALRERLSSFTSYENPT
EPH-A4, sequence (P54764 20-986, species assumed): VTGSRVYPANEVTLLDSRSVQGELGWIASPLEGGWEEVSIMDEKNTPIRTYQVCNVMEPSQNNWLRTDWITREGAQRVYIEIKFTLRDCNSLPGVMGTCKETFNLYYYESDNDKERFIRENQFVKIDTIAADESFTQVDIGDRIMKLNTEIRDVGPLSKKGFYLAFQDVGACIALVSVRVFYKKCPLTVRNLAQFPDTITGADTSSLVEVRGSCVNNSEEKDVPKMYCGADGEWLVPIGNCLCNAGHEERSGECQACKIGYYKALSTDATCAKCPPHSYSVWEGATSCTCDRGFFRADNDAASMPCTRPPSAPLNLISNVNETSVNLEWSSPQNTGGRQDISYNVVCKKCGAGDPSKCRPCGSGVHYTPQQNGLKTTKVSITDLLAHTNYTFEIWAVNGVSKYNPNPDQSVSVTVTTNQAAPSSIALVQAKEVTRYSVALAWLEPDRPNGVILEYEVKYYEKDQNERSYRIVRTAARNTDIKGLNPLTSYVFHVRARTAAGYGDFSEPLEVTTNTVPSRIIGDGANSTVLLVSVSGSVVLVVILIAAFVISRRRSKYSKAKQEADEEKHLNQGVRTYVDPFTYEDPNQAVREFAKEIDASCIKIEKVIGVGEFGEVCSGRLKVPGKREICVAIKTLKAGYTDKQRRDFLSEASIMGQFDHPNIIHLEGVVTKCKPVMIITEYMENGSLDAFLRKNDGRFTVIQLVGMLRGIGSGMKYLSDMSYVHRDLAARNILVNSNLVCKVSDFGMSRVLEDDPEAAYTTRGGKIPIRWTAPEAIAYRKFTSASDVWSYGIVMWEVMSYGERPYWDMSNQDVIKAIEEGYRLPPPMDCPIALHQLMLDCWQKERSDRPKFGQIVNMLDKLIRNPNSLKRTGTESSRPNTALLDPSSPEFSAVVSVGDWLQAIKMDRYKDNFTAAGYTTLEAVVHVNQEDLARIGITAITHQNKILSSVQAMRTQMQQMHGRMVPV
TLK1, sequence (Q9UKI8 whole entry, species assumed): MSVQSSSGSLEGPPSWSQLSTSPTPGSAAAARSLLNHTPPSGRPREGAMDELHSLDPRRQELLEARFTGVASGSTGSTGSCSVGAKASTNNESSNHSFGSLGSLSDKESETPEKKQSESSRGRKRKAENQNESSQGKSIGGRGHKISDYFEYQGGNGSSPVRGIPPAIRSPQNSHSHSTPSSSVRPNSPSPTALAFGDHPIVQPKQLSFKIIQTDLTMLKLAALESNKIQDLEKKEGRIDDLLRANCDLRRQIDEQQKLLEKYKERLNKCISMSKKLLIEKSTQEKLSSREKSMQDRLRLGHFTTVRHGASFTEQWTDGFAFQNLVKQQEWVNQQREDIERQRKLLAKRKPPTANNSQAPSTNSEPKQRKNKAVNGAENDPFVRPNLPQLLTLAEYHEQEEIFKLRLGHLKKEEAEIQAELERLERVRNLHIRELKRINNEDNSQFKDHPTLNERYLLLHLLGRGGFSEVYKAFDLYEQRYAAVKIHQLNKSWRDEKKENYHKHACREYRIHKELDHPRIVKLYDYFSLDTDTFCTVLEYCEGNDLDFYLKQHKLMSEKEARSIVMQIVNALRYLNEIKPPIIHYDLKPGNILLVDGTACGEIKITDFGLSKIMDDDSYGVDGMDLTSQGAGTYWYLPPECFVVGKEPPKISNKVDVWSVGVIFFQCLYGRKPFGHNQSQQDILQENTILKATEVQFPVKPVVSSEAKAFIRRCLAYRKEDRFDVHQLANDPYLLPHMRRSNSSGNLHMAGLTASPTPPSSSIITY

SMILES: COc1ccc2sc(-c3cncc(NC(C)=O)c3)nc2c1 [4-93, N-(5-(5-Methoxybenzo[d]thiazol-2-yl)pyridin-3-yl)acetamide]
- inhibition at 1 µM (MST4): 0%
- inhibition at 1 µM (CAMKKb): 0%
- inhibition at 1 µM (EPH-A4): 0%
- inhibition at 1 µM (Lck): 7%
- inhibition at 1 µM (TTBK1): 0%
- inhibition at 1 µM (Src): 0%
- inhibition at 1 µM (MEKK1): 0%
- inhibition at 1 µM (PIM1): 2%
- inhibition at 1 µM (MELK): 1%
- inhibition at 1 µM (ULK1): 0%
- inhibition at 1 µM (HIPK2): 10%
- inhibition at 1 µM (MARK1): 0%
- inhibition at 1 µM (Aurora B): 0%
- inhibition at 1 µM (MARK4): 0%
- inhibition at 1 µM (RIPK2): 0%
- inhibition at 1 µM (JNK3): 0%
- inhibition at 1 µM (YES1): 0%
- inhibition at 1 µM (Aurora A): 0%
- inhibition at 1 µM (RSK2): 0%
- inhibition at 1 µM (PAK6): 0%
- inhibition at 1 µM (MST2): 0%
- inhibition at 1 µM (MNK1): 0%
- inhibition at 1 µM (LKB1): 0%
- inhibition at 1 µM (MPSK1): 0%
- inhibition at 1 µM (SmMLCK): 0%
- inhibition at 1 µM (BRSK2): 0%
- inhibition at 1 µM (S6K1): 0%
- inhibition at 1 µM (MSK1): 0%
- inhibition at 1 µM (BRK): 0%
- inhibition at 1 µM (ASK1): 0%
- inhibition at 1 µM (EIF2AK3): 0%
- inhibition at 1 µM (TLK1): 0%
- inhibition at 1 µM (JNK2): 0%
- inhibition at 1 µM (SGK1): 0%
- inhibition at 1 µM (IRR): 0%
- inhibition at 1 µM (SIK3): 0%
- inhibition at 1 µM (IKKe): 0%
- inhibition at 1 µM (PIM3): 7%
- inhibition at 1 µM (PKBa): 0%
- inhibition at 1 µM (MAPKAP-K2): 0%
- inhibition at 1 µM (TESK1): 0%
- inhibition at 1 µM (MKK6): 0%

SMILES: CS(=O)(=O)Nc1cncc(-c2nc3cc(O)ccc3s2)c1 [4-99, N-(5-(5-Hydroxybenzo[d]thiazol-2-yl)pyridin-3-yl)methanesulfonamide]
- inhibition at 1 µM (MST4): 0%
- inhibition at 1 µM (CAMKKb): 0%
- inhibition at 1 µM (EPH-A4): 0%
- inhibition at 1 µM (Lck): 0%
- inhibition at 1 µM (TTBK1): 0%
- inhibition at 1 µM (Src): 0%
- inhibition at 1 µM (MEKK1): 0%
- inhibition at 1 µM (PIM1): 0%
- inhibition at 1 µM (MELK): 0%
- inhibition at 1 µM (ULK1): 0%
- inhibition at 1 µM (HIPK2): 0%
- inhibition at 1 µM (MARK1): 0%
- inhibition at 1 µM (Aurora B): 0%
- inhibition at 1 µM (MARK4): 0%
- inhibition at 1 µM (RIPK2): 24%
- inhibition at 1 µM (JNK3): 0%
- inhibition at 1 µM (YES1): 0%
- inhibition at 1 µM (Aurora A): 0%
- inhibition at 1 µM (RSK2): 0%
- inhibition at 1 µM (PAK6): 0%
- inhibition at 1 µM (MST2): 0%
- inhibition at 1 µM (MNK1): 0%
- inhibition at 1 µM (LKB1): 0%
- inhibition at 1 µM (MPSK1): 11%
- inhibition at 1 µM (SmMLCK): 0%
- inhibition at 1 µM (BRSK2): 0%
- inhibition at 1 µM (S6K1): 0%
- inhibition at 1 µM (MSK1): 0%
- inhibition at 1 µM (BRK): 0%
- inhibition at 1 µM (ASK1): 0%
- inhibition at 1 µM (EIF2AK3): 0%
- inhibition at 1 µM (TLK1): 0%
- inhibition at 1 µM (JNK2): 0%
- inhibition at 1 µM (SGK1): 7%
- inhibition at 1 µM (IRR): 0%
- inhibition at 1 µM (SIK3): 0%
- inhibition at 1 µM (IKKe): 0%
- inhibition at 1 µM (PIM3): 0%
- inhibition at 1 µM (PKBa): 0%
- inhibition at 1 µM (MAPKAP-K2): 0%
- inhibition at 1 µM (TESK1): 0%
- inhibition at 1 µM (MKK6): 0%

From US10927106B2, “Benzothiazole derivatives as DYRK1 inhibitors” (PHARMASUM THERAPEUTICS AS, priority 2017, dated 2021)
